Columns and labels:
Type in all cases: cell-based, human
H520 = test: relative growth in dropout media (XTT / CellTiter-Glo); settings: for relative growth: three days
Experimental: (§1) To establish the screening assay for the nutritional weakness of cancer cells, 5 human blood cancer cell lines, 4 human lung cancer cell lines, 1 human colon cancer cell line, 1 human liver cancer cell line, 5 human breast cancer cell lines, and 3 human prostate cancer cell lines were used (Table 1). All 19 cell lines were cultured in reconstituted complementary RPM11640 based media R-comp (Table 2) for more than 10 days before screening assays.
(§2) To test for nutritional weaknesses of cancer cell lines or primary cancer cells, each individual non-essential amino acid was dropped out from the R-comp media (Table 2). Multiple amino acid dropout media was used to test combinatorial effects. Prior to the experiments, cells were first acclimated in R-comp media, and then harvested and washed in EBSS solution. The cell density was adjusted to 1-3×10^5 cells/ml before adding to equal volumes of 2× dropout media plus 2× R-comp (positive control) in a 96-well plate. The plates were then placed in an incubator set at 37° C. with a 5% CO2 supply. Five technical replicates were used for each medium treatment. For each cell line, at least three biological replicates were performed with 2 time-points (day 1 and day 3).
(§3) Cell growth was analyzed with two cell viability methods (XTT and CellTiter-Glo-based assays). In the XTT-based assay, cell growth is measured by absorbance at 450 nm after adding the XTT reagent to each culture and incubating under the same culture conditions for 2 hours according to the manufacturer's instructions (ThermoFisher X6493). Absorption at 690 nm was also measured as background and subtracted from absorption at 450 nm. In the CellTiter-Glo-based assay (Promega, G7572), cell growth is measured by luminescence with a dwelling time of 200 milliseconds on a Tecan plate reader.
(§4) The relative growth is calculated with the following equation: Growth %=(readingdropout−average(readingsblank))/(average(readingsR-comp)−average(readingsblank))×100%

H661 = test: as above; settings: for relative growth: three days; for relief of suppressed growth by augmented supplementation (in words): cystine and tyrosine dropouts, 20 times
Experimental: as §1, §2, §3, §4

H69 = test: as above; settings: for relative growth: three days
Experimental: as §1, §2, §3, §4

K562 = test: as above; settings: for relative growth: —Cys, three days, CellTiter-Glo
Experimental: as §1, §2, §3, §4

GA10 = test: as above
Experimental: as §1, §2, §3, §4

H1437 = test: as above
Experimental: as §1, §2, §3, §4

Jurkat = test: as above
Experimental: as §1, §2, §3, §4

HCT116 = test: as above; settings: for growth with vitamin supplementation in the absence of cystine (in words): 50×
Experimental: as §1, §2, §3, §4

U937 = test: as above; settings: for relief of suppressed growth by augmented supplementation (in words): cystine and tyrosine dropouts, 20 times
Experimental: as §1, §2, §3, §4

cancer cell lines = test: growth assay in dropout media, cancer cell lines as a group; settings: up to 50× strength; cell lines sensitive to cystine dropout
Experimental: as §1
To test for nutritional weaknesses of cancer cell lines or primary cancer cells, each individual non-essential amino acid was dropped out from the R-comp media (Table 2). Multiple amino acid dropout media was used to test combinatorial effects. Prior to the experiments, cells were first acclimated in R-comp media, and then harvested and washed in EBSS solution. […]
as §3, with “reader. […]” for “reader.”

HCC1187 = test: relative growth in dropout media (XTT / CellTiter-Glo); settings: —Cys (5x Met), vitamin supplementation 50x, three days, Cell-Titer-Glo
Experimental: as §1, §2, §3, §4

HCC1599 = test: as above
Experimental: as §1, §2, §3, §4

MDA-MB-453 = test: as above
Experimental: as §1, §2, §3, §4

C4-28 = test: as above; settings: —Cys (5x Met), vitamin supplementation 50x, three days, Cell-Titer-Glo
Experimental: as §1, §2, §3, §4

HCC70 = test: as above; settings: —Cys (5x Met), vitamin supplementation 50x, three days, Cell-Titer-Glo
Experimental: as §1, §2, §3, §4

HL60 = test: as above; settings: —Cys (5x Met), vitamin supplementation 50x, three days, Cell-Titer-Glo
Experimental: as §1, §2, §3, §4

HepG2 = test: as above; settings: —Cys (5x Met), vitamin supplementation 50x, three days, Cell-Titer-Glo
Experimental: as §1, §2, §3, §4

MDA-MB-231 = test: as above; settings: —Cys (5x Met), vitamin supplementation 50x, three days, Cell-Titer-Glo
Experimental: as §1, §2, §3, §4

PC-3 = test: as above; settings: —Cys (5x Met), vitamin supplementation 50x, three days, Cell-Titer-Glo
Experimental: as §1, §2, §3, §4

VCaP = test: as above; settings: —Cys (5x Met), vitamin supplementation 50x, three days, Cell-Titer-Glo
Experimental: as §1, §2, §3, §4

[1] = 0.1× level of cystine supplementation
[2] = —Cys, +Cys 0.01x (5x Met), CellTiter-Glo
[3] = —Cys, +Cys 0.02x (5x Met), CellTiter-Glo
[4] = —Cys, +Cys 0.05x (5x Met), CellTiter-Glo
[5] = —Cys, +Cys 0.1x (5x Met), CellTiter-Glo
[6] = —Cys, +Cys 0.5x (5x Met), CellTiter-Glo
[7] = —Cys, +Glut 2.5x, CellTiter-Glo
[8] = —Cys, +Glut 100x, CellTiter-Glo
[9] = —Cys (5x Met), vitamin supplementation 50x, Cell-Titer-Glo
[10] = —Cys (5x Met), vitamin supplementation 50x, three days, Cell-Titer-Glo

Compound: N[C@@H](CSSC[C@H](N)C(=O)O)C(=O)O [+Cys (5x Met), cystine]
- restoration of growth by adding back cystine (in words) (H520; [1]): merely restored
- relative growth (H520; [2]): 5.2%
- relative growth (H520; [3]): 4.7%
- relative growth (H520; [4]): 9.4%
- relative growth (H520; [5]): 41.8%
- relative growth (H520; [6]): 110.4%
- relative growth (H661; [2]): 0.1%
- relative growth (H661; [3]): 0.1%
- relative growth (H661; [4]): 0.1%
- relative growth (H661; [5]): 0.1%
- relative growth (H661; [6]): 103.2%
- relative growth (H69; [2]): 1.2%
- relative growth (H69; [3]): 1.3%
- relative growth (H69; [4]): 1.2%
- relative growth (H69; [5]): 2.1%
- relative growth (H69; [6]): 51.8%
- restoration of growth by adding back cystine (in words) (K562; [1]): substantially restored to the levels of the control
- relative growth (K562; +Cys 0.01x (5x Met)): 1.9%
- relative growth (K562; +Cys 0.02x (5x Met)): 2.2%
- relative growth (K562; +Cys 0.05x (5x Met)): 9.5%
- relative growth (K562; +Cys 0.1x (5x Met)): 36.5%
- relative growth (K562; +Cys 0.5x (5x Met)): 101.5%

Compound: N[C@@H](CCC(=O)N[C@@H](CS)C(=O)NCC(=O)O)C(=O)O [+Glut, glutathione]
- restoration of growth suppressed by cystine dropout (in words) (GA10; 10× supplementation): not significantly
- restoration of growth suppressed by cystine dropout (in words) (H1437; 10× supplementation): substantially restored the suppressed growth
- relative growth (H520; [7]): 21.3%
- relative growth (H520; —Cys, +Glut 10x, CellTiter-Glo): 71.3%
- relative growth (H520; —Cys, +Glut 50x, CellTiter-Glo): 97.8%
- relative growth (H520; [8]): 105.7%
- relative growth (H661; [7]): 0.2%
- relative growth (H661; —Cys, +Glut 10x, CellTiter-Glo): 13.0%
- relative growth (H661; —Cys, +Glut 50x, CellTiter-Glo): 75.4%
- relative growth (H661; [8]): 41.1%
- restoration of growth suppressed by cystine dropout (in words) (H69; 10× supplementation): not significantly
- relative growth (H69; [7]): 1.4%
- relative growth (H69; —Cys, +Glut 10x, CellTiter-Glo): 2.1%
- relative growth (H69; —Cys, +Glut 50x, CellTiter-Glo): 3.6%
- relative growth (H69; [8]): 2.8%
- restoration of growth suppressed by cystine dropout (in words) (Jurkat; 10× supplementation): substantially restored the suppressed growth
- relative growth (K562; +Glut 2.5x): 16.2%
- relative growth (K562; +Glut 10x): 78.8%
- relative growth (K562; +Glut 50x): 84.4%
- relative growth (K562; +Glut 100x): 98.9%

Compound: CSCC[C@H](N)C(=O)O [+Met, methionine]
- relative growth (H520; —Cys, +Met 10x, CellTiter-Glo): 7.3%
- relative growth (H520; —Cys, +Met 50x, CellTiter-Glo): 16.7%
- relief of suppressed growth by augmented supplementation (in words) (H661): not brought back
- relative growth (H661; —Cys, +Met 10x, CellTiter-Glo): 0.1%
- relative growth (H661; —Cys, +Met 50x, CellTiter-Glo): 0.1%
- relative growth (H69; —Cys, +Met 10x, CellTiter-Glo): 1.2%
- relative growth (H69; —Cys, +Met 50x, CellTiter-Glo): 1.2%
- restoration of growth in the absence of cystine (in words) (HCT116; 10×): substantially restore HCT116 growth
- relative growth (K562; +Met 10x): 1.6%
- relative growth (K562; +Met 50x): 1.1%
- relief of suppressed growth by augmented supplementation (in words) (U937): not brought back
- promotion of growth under cystine dropout (in words) (cancer cell lines): failed to promote the growth

Compound: Cc1ncc(C[n+]2csc(CCO)c2C)c(N)n1 [B1, thiamine]
- relative growth (H520; [9]): 0.5%
- relative growth (H661; [9]): 1.5%
- relative growth (H69; [9]): 5.8%
- relative growth (HCC1187): 6.2%
- growth with vitamin supplementation in the absence of cystine (in words) (HCC1599): substantially restored
- growth with vitamin supplementation in the absence of cystine (in words) (HCT116): largely restored
- growth with vitamin supplementation in the absence of cystine (in words) (MDA-MB-453; 50×): growth was promoted

Compound: Cc1cc2nc3c(=O)[nH]c(=O)nc-3n(C[C@H](O)[C@H](O)[C@H](O)CO)c2cc1C [B2, riboflavin]
- relative growth (H520; [9]): 0.3%
- relative growth (H661; [9]): 0.2%
- relative growth (H69; [9]): 5.0%
- relative growth (HCC1187): 1.0%
- growth with vitamin supplementation in the absence of cystine (in words) (HCT116): even more drastic growth suppression

Compound: NC(=O)c1cccnc1 [B3, niacinamide]
- relative growth (H520; [9]): 0.3%
- relative growth (H661; [9]): 0.2%
- relative growth (H69; [9]): 5.3%
- relative growth (HCC1187): 3.4%

Compound: Cc1ncc(CO)c(CO)c1O [B6, pyridoxine]
- relative growth (H520; [9]): 0.2%
- relative growth (H661; [9]): 0.9%
- relative growth (H69; [9]): 5.2%
- relative growth (HCC1187): 2.2%

Compound: O=C(O)CCCC[C@@H]1SC[C@@H]2NC(=O)N[C@@H]21 [B7, biotin]
- relative growth (H520; [9]): 0.2%
- relative growth (H661; [9]): 0.2%
- relative growth (H69; [9]): 5.7%
- relative growth (HCC1187): 5.8%

Compound: N[C@@H](Cc1ccccc1)C(=O)O [phenylalanine]
- relief of suppressed growth by augmented supplementation (in words) (H661): not brought back
- relief of suppressed growth by augmented supplementation (in words) (U937): not brought back

Compound: calcium pantothenate [B5]
- relative growth (C4-28): 0.2%
- relative growth (GA10; [10]): 4.3%
- relative growth (H1437; [10]): 0.5%
- relative growth (H520; [9]): 0.3%
- relative growth (H661; [9]): 0.2%
- relative growth (H69; [9]): 5.5%
- relative growth (HCC1187): 0.0%
- relative growth (HCC1599; [10]): 4.9%
- relative growth (HCC70): 0.9%
- relative growth (HCT116; [10]): 56.4%
- relative growth (HL60): 0.1%
- relative growth (HepG2): 1.4%
- relative growth (Jurkat; [10]): 0.3%
- relative growth (MDA-MB-231): 0.2%
- relative growth (MDA-MB-453; [10]): 104.4%
- relative growth (PC-3): 0.8%
- relative growth (U937; [10]): 0.0%
- relative growth (VCaP): 0.1%

Source: US10973251B1, “Nutritional treatment for cancer” (The Board of Trustees of the Leland Stanford Junior …, priority 2015, dated 2021)
